# Results from article PMC12084297, “Cytoplasmic connexin43-microtubule interactions promote glioblastoma stem-like cell maintenance and tumorigenicity” (Cell Death & Disease, 2025).
# Columns and labels:
# [1] = test system: Cx43; experiment: Cx43 expression in co-IP input, immunoblot, VTC-037 GSCs; format: cell-based, human; details: 50 μM, 24 h
# Protocol: Cells were lysed in RIPA buffer (0.1% sodium dodecyl sulphate, 50 mM Tris pH 7.4, 150 mM NaCl, 1 mM EDTA, 1% Triton X-100, 1% deoxycholic acid, 200 μM Na3VO4, and 1 mM NaF) supplemented with Halt^TM Protease and Phosphatase Inhibitor Cocktail (Thermo Fisher). Lysates were sonicated prior to centrifugation at 4 °C for 20 min at 10,000 x g. Protein concentration was quantified using the DC protein assay (Bio-Rad Laboratories) and a standard curve obtained with increasing concentrations of Bovine Serum Albumin (BSA; Fisher Scientific). Protein samples were normalized to 20 μg total protein per lane and resolved by SDS-PAGE electrophoresis. 4X Bolt LDS sample buffer supplemented with 400 mM DTT (final concentration 1X Bolt LDS with 100 mM DTT) was added to samples before heating at 70 °C for 10 min. […] Membranes were imaged on a ChemiDoc™ imaging system, and analyzed with Image Lab software (Bio-Rad Laboratories). […]
# Prior to lysis, cross-linking was completed by incubating cells in DTBP (dimethyl 3,3’-dithiobispropionimidate; 2 mM in PBS) for 30 min at 37 °C followed by a glycine quench (100 mM glycine in PBS) for 15 min at room temperature. […] Protein concentration was quantified using the DC protein assay and a standard curve obtained with increasing concentrations of BSA, and 500 μg of total protein was used per reaction for co-IP. […]
# [2] = test system: Cx43; details: prior work with JM2; ref [41]; cited from earlier work
# Source text: Using JM2, a Cx43 mimetic peptide of Cx43 tubulin-binding domain, we confirm efficient and specific disruption of Cx43-microtubule interaction in GSCs together with decreased self-renewal abilities and enhanced killing of this cancer stem-like cell population, highlighting a novel tumorigenic role for Cx43 in GSCs, and GBM. Thermal shift assays reveal JM2 presents high affinity for both α- and β- tubulin. While chemotherapeutic drugs such as paclitaxel have been used to target microtubule functions as therapeutic agents, many of these therapeutic agents cause significant side-effects. M ...
sequence,measurement,setting,value
VFFKGVKDRVKGRSD [JM2],Cx43 expression (co-IP input),[1],does not affect Cx43 expression in GSCs
same,Cx43 delivery to the cell surface,[2],a loss of Cx43 delivery to the cell surface due to increased Cx43/tubulin complexing
